From patent US4778811A, “Pharmaceutical compositions of 2-methyl-thiazolo[4,5-c]quinoline” (EGIS Gyogyszergyar, priority 1985, dated 1988)

What was measured:
serotonin (5HT) = test: 5HT level and turnover rate of 5HT in rat brain parts; assay type: in vivo; conditions: 1 hr after 30 mg/kg s.c.
Experimental: (§1) 11. The turnover rate of dopamine (TRDA), noradrenaline (TRNA) and serotonin (TR5 HT) was measured 1 hr after the injection of 30 mg/kg s.c. 2-methyl-thiazolo[4,5-c]quinoline-ethanesulphonate.

[1] = Shuttle-box, acquisition of two-way conditioned avoidance reflex; assay type: in vivo
Experimental: The acquisition of a two-way conditioned avoidance reflex (CAR) was analyzed in the shuttle-box during 5 consecutive days. […] It consists of six boxes, each is separated inside by a barrier with a small gate in the middle. […] They were given 100 trials per day. One trial consisted of 15 s intertrial interval, followed by 15 s CS. The last 5 s of CS overlapped the first s of US. At each learning session the number of CAR and intersignal reactions (IR) was automatically counted and evaluated by multiway analysis of variance (ANOVA).

dopamine (DA) = test: DA level and turnover rate of DA in rat striatum; assay type: in vivo; conditions: 1 hr after 30 mg/kg s.c.
Experimental: as §1

benzodiazepine receptor = test: Benzodiazepine (BZD) receptor binding, 3H-diazepam displacement, crude cortical membrane preparation; conditions: crude cortical membrane, 1 hr, 0° C., TRIS-citrate buffer, pH 6.8
Experimental: For the studies of benzodiazepine /BZD) receptor binding crude cortical membrane preparation was used. […] ^3 H-diazepam was incubated with the membrane for 1 hr at 0° C. in TRIS-citrate buffer, pH 6.8. Specific binding was determined in the presence of 10 μM diazepam. In displacement studies chlordiazepoxide was used as control drug.

[2] = Screening test: one session conditioning / unconditioned reflex, glass cylinder jump; assay type: in vivo, rats; conditions: 0.025 mg/kg
Experimental: Was elaborated for studying learning and retention of rats during one session conditioning.
During conditioning rats are trained to jump onto the top of glass cylinder by the electric foot-shock (110 V). The escape reaction (unconditioned reflex, UR) is paired with a bell as conditioned stimulus. The criterion of learning is that conditioned reflex (CR) should be elicited 10 times with 10 s intervals without reinforcement. Retention of CR is taken positive when 24 h following the experiment CR can be elicited. In these experiments animals are distributed into 4 categories on the basis of their learning ability.

[3] = Effect on basal metabolism (O2 consumption); assay type: in vivo, rats; conditions: urethane 0.6 g/kg i.p., 30° C.
Experimental: The O2 consumption of rats was measured by the method of Issekutz and Issekutz (1952) at constant temperature (30° C.).
O2 consumption of the animals was expressed in ml/h and calculated for body surface, and given finally in ml/h/dm^2. Following injection of urethane and the basal O2 consumption was measured during 30 minutes. This was followed by the injection of the test substance and O2 consumption was registered immediately afterwards. The difference between the highest O2 consumption and the basal value was expressed in percent.
O2 consumption of the animals was calculated according to the following equation: [formula] V=2000 cm^3 P=pressure fall (mmHg)
T=period of measurement (h)
O2 consumption was calculated for body surface and expressed as ml/dm^2 /h. Body surface was calculated on the basis of the "Diack" formula: […]

## Cc1nc2cnc3ccccc3c2s1 [B compound, 2-methyl-thiazolo[4,5-c]quinoline-ethanesulfonate]
Serotonin (5HT); brainstem
  5HT level: 792.5 ± 36.9 ng/g
  TR5HT (turnover rate of 5HT): 237.2 ng/g/h
Serotonin (5HT); teldiencephalon
  5HT level: 457.9 ± 24.2 ng/g
  TR5HT (turnover rate of 5HT): 53.9 ng/g/h
[1]; 10 mg/kg s.c., day 1
  acquisition of conditioned reflex, number of positive responses (F): 7.5
  number of intersignal reactions (IR): 11.4
  number of negative responses (-f): 76.0
[1]; 10 mg/kg s.c., day 2
  acquisition of conditioned reflex, number of positive responses (F): 20.2
  number of intersignal reactions (IR): 9.1
  number of negative responses (-f): 40.8
[1]; 10 mg/kg s.c., day 3
  acquisition of conditioned reflex, number of positive responses (F): 20.2
  number of intersignal reactions (IR): 7.6
  number of negative responses (-f): 29.3
[1]; 10 mg/kg s.c., day 4
  acquisition of conditioned reflex, number of positive responses (F): 17.8
  number of intersignal reactions (IR): 4.5
  number of negative responses (-f): 29.9
[1]; 10 mg/kg s.c., day 5
  acquisition of conditioned reflex, number of positive responses (F): 14.5
  number of intersignal reactions (IR): 3.3
  number of negative responses (-f): 37.5
[1]; 25 mg/kg s.c., day 1
  acquisition of conditioned reflex, number of positive responses (F): 8.7
  number of intersignal reactions (IR): 12.4
  number of negative responses (-f): 54.9
[1]; 25 mg/kg s.c., day 2
  acquisition of conditioned reflex, number of positive responses (F): 4.2
  number of intersignal reactions (IR): 5.0
  number of negative responses (-f): 67.4
[1]; 25 mg/kg s.c., day 3
  acquisition of conditioned reflex, number of positive responses (F): 8.9
  number of intersignal reactions (IR): 9.2
  number of negative responses (-f): 74.1
[1]; 25 mg/kg s.c., day 4
  acquisition of conditioned reflex, number of positive responses (F): 4.0
  number of intersignal reactions (IR): 4.9
  number of negative responses (-f): 80.1
[1]; 25 mg/kg s.c., day 5
  acquisition of conditioned reflex, number of positive responses (F): 2.5
  number of intersignal reactions (IR): 3.3
  number of negative responses (-f): 85.0
Dopamine (DA)
  DA level: 9.14 ± 0.49 µg/g
  TRDA (turnover rate of DA): 1.4 ng/g/h

## CNC1=Nc2ccc(Cl)cc2C(c2ccccc2)=[N+]([O-])C1 [Chlordiazepoxide, chlordiazepoxide, reference compound]
Benzodiazepine receptor
  displacement of 3H-diazepam specific binding: displaced ^3 H-diazepam on the receptor in concentration dependent manner
[1]; 5 mg/kg s.c., day 1
  acquisition of conditioned reflex, number of positive responses (F): 23.1
  number of intersignal reactions (IR): 108
  number of negative responses (-f): 11.8
[1]; 5 mg/kg s.c., day 2
  acquisition of conditioned reflex, number of positive responses (F): 38.7
  number of intersignal reactions (IR): 14.0
  number of negative responses (-f): 9.1
[1]; 5 mg/kg s.c., day 3
  acquisition of conditioned reflex, number of positive responses (F): 35.6
  number of intersignal reactions (IR): 8.9
  number of negative responses (-f): 10.2
[1]; 5 mg/kg s.c., day 4
  acquisition of conditioned reflex, number of positive responses (F): 41.1
  number of intersignal reactions (IR): 6.7
  number of negative responses (-f): 14.9
[1]; 5 mg/kg s.c., day 5
  acquisition of conditioned reflex, number of positive responses (F): 50.8
  number of intersignal reactions (IR): 4.2
  number of negative responses (-f): 13.0
[1]; 10 mg/kg
  number of negative responses (f) (in words): increased
[1]; 10 mg/kg s.c., day 1
  acquisition of conditioned reflex, number of positive responses (F): 19.9
  number of intersignal reactions (IR): 10.8
  number of negative responses (-f): 32.7
[1]; 10 mg/kg s.c., day 2
  acquisition of conditioned reflex, number of positive responses (F): 37.9
  number of intersignal reactions (IR): 14.7
  number of negative responses (-f): 22.8
[1]; 10 mg/kg s.c., day 3
  acquisition of conditioned reflex, number of positive responses (F): 33.7
  number of intersignal reactions (IR): 8.1
  number of negative responses (-f): 31.8
[1]; 10 mg/kg s.c., day 4
  acquisition of conditioned reflex, number of positive responses (F): 35.6
  number of intersignal reactions (IR): 6.3
  number of negative responses (-f): 36.5
[1]; 10 mg/kg s.c., day 5
  acquisition of conditioned reflex, number of positive responses (F): 41.2
  number of intersignal reactions (IR): 6.1
  number of negative responses (-f): 40.8
[1]; 25 mg/kg s.c., day 1
  acquisition of conditioned reflex, number of positive responses (F): 9.7
  number of negative responses (-f): 74.0
[1]; 25 mg/kg s.c., day 2
  acquisition of conditioned reflex, number of positive responses (F): 12.2
  number of negative responses (-f): 67.5
[1]; 25 mg/kg s.c., day 3
  acquisition of conditioned reflex, number of positive responses (F): 17.9
  number of negative responses (-f): 67.0
[1]; 25 mg/kg s.c., day 4
  acquisition of conditioned reflex, number of positive responses (F): 20.0
  number of negative responses (-f): 65.6
[1]; 25 mg/kg s.c., day 5
  acquisition of conditioned reflex, number of positive responses (F): 21.4
  number of negative responses (-f): 59.8
[1]; 10 and 5 mg/kg
  acquisition of conditioned reflex (in words): unchanged
  intersignal reactions (IR) (in words): unchanged
[2]
  inhibition of the development of conditioned reflex: does not influence the development of CR

## O=C(CCCN1CCC(O)(c2ccc(Cl)cc2)CC1)c1ccc(F)cc1 [Haloperidol, reference compound]
[3]
  rate of metabolism / O2 consumption: slightly decreased
[2]
  inhibition of the development of conditioned reflex: strong inhibition

## CC(N)Cc1ccccc1 (stereo not drawn) [amphetamine]
[3]
  rate of metabolism / O2 consumption: dose-dependently increased
